19 molecules from patent US8541418B2, “Inhibitors of polo-like kinase” (Elan Pharmaceutical, Inc., priority 2009, dated 2013) can be followed below.

Assay type in all cases: biochemical
One experiment has as its target PLK1 (Homo sapiens, UniProt P53350). The experiment in a line: PLK TR-FRET peptide assay, PLK1. As to conditions: GST-PLK1, 60 min reaction. Background: TR-FRET usually uses a lanthanide donor and a delayed reading to cut background.
The target in another experiment is PLK2 (Homo sapiens, UniProt Q9NYY3). The experiment in a line: PLK TR-FRET peptide assay, PLK2. The conditions noted are these: for pIC50: PLK TR-FRET peptide assay, GST-PLK2, 60 min reaction, read-out: Plk2 IC50.
Chain of PLK2 (Q9NYY3 whole entry): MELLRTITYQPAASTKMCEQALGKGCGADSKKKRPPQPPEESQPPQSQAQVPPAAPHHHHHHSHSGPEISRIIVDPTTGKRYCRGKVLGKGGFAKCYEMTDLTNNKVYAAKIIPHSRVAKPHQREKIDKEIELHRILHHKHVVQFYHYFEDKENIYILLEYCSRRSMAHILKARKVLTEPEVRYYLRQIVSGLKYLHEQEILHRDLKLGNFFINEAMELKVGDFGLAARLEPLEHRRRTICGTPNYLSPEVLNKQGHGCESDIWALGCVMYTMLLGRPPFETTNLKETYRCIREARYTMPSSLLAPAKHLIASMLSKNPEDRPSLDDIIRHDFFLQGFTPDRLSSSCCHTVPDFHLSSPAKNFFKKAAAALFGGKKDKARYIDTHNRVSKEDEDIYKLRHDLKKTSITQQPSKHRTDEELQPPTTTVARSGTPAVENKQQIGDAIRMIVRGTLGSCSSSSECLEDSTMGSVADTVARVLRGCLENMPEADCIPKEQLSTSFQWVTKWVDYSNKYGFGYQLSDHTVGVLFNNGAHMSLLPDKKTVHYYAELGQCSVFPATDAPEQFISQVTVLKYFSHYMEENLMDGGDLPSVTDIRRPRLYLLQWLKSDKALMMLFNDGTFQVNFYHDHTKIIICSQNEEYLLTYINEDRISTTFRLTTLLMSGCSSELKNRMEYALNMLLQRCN
A further experiment addresses PLK3 (Homo sapiens, UniProt Q9H4B4). As to the kind of experiment: PLK TR-FRET peptide assay, PLK3. As to conditions: GST-PLK3, 15 min reaction, read-out: Plk3 IC50.

pIC50: −log10 of the molar value.

Chain of PLK1 (P53350 whole entry): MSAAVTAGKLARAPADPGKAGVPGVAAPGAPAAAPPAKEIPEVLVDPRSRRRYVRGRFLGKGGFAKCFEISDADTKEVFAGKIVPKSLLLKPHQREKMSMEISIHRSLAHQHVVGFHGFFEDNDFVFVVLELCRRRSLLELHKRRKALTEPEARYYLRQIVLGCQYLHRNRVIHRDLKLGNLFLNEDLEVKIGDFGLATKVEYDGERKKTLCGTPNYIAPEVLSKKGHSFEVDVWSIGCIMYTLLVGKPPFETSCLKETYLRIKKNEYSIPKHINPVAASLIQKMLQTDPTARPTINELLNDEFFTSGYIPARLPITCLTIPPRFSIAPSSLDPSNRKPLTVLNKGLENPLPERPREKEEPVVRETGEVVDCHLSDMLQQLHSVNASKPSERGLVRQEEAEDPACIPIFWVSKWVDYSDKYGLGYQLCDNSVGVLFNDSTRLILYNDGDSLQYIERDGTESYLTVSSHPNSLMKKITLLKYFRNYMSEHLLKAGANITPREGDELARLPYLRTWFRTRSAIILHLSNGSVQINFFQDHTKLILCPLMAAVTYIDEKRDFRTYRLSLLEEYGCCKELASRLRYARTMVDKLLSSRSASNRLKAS
Chain of PLK3 (Q9H4B4 whole entry): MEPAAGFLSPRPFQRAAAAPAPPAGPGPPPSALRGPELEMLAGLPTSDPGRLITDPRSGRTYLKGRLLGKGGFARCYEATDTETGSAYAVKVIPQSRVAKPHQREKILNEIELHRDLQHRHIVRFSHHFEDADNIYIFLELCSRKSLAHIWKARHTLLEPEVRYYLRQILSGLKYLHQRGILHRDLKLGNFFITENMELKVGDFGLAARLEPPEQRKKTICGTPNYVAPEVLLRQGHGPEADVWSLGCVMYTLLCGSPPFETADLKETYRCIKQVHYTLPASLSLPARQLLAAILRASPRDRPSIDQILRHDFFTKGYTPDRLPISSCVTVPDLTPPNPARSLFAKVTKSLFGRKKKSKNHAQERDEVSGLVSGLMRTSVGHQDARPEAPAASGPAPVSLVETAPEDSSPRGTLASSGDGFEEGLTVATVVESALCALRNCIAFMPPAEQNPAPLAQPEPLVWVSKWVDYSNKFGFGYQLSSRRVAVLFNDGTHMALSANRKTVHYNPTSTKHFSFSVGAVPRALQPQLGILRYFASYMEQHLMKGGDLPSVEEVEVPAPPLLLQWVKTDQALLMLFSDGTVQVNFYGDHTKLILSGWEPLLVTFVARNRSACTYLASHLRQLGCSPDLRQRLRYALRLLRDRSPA

As for `CC[C@@]12CCCCN1c1nc(-n3ccnc3-c3cccc(F)c3)ncc1N(C)C2=O` [Example 264, (S)-6a-ethyl-2-(2-(3-fluorophenyl)-1H-imidazol-1-yl)-5-methyl-7,8,9,10-tetrahydro-5H-pyrido[2,1-h]pteridin-6(6aH)-one], the pIC50 (commonly the negative decadic logarithm of the IC50, by convention in mol/L) against PLK1 is 5.00 to 6.00; on PLK2, above 6.00; at PLK3, 4.30 to 5.00. Also, the “relative PLK2 activity of the enantiomers” value on PLK2 (compared with the opposite enantiomer) is reported as “more active compound”.

In the case of `CC[C@@H]1C(=O)N(C)c2cnc(-n3ccnc3-c3cncnc3)nc2N1C1CC1` [Example 143, (R)-8-cyclopropyl-7-ethyl-5-methyl-2-(2-(pyrimidin-5-yl)-1H-imidazol-1-yl)-7,8-dihydropteridin-6(5H)-one], the pIC50 on PLK1 was 4.30 to 5.00; on PLK2 it was 5.00 to 6.00; at PLK3, 4.30 to 5.00.

As for `CCC12CCCCN1c1nc(-n3ccnc3-c3cccc(F)c3F)ncc1N(C)C2=O` (racemic) [Example 248, (+/−) 2-(2-(2,3-difluorophenyl)-1H-imidazol-1-yl)-6a-ethyl-5-methyl-7,8,9,10-tetrahydro-5H-pyrido[2,1-h]pteridin-6(6aH)-one], the results for the negative logarithm of the IC50 (pIC50) on PLK1, on PLK2 and on PLK3 were 5.00 to 6.00, above 6.00 and 4.30 to 5.00, respectively.

Consider `CC[C@@]12CCC(=O)N1c1nc(-n3ccnc3-c3ccccc3)ncc1N(C)C2=O` [Example 258, (S)-6a-ethyl-5-methyl-2-(2-phenyl-1H-imidazol-1-yl)-7,8-dihydropyrrolo[2,1-h]pteridine-6,9(5H,6aH)-dione], for which the values for the pIC50 at PLK1, at PLK2 and at PLK3 were below 4.30, 4.30 to 5.00 and below 4.30, respectively.

On to `CC[C@@H]1C(=O)N(C)c2cnc(-n3ccnc3-c3ccc(C(F)(F)F)cc3)nc2N1C(C)C` [Example 166, (R)-7-ethyl-8-isopropyl-5-methyl-2-(2-(4-(trifluoromethyl)phenyl)-1H-imidazol-1-yl)-7,8-dihydropteridin-6(5H)-one], for which the values for the pIC50 against PLK1, on PLK2 and at PLK3 were 5.00 to 6.00, above 6.00 and 4.30 to 5.00, respectively.

For the molecule `CC[C@@H]1C(=O)N(C)c2cnc(-n3ccnc3-c3nccc4ccccc34)nc2N1C(C)C` [Example 196, (R)-7-ethyl-8-isopropyl-2-(2-(isoquinolin-1-yl)-1H-imidazol-1-yl)-5-methyl-7,8-dihydropteridin-6(5H)-one], the negative-log IC50 (pIC50) on PLK1 is 4.30 to 5.00; on PLK2, 5.00 to 6.00; at PLK3, below 4.30.

As to `CC[C@@H]1C(=O)N(C)c2cnc(-n3ccnc3-c3cccc(C#N)c3)nc2N1C(C)C` [Example 228, (R)-3-(1-(7-ethyl-8-isopropyl-5-methyl-6-oxo-5,6,7,8-tetrahydropteridin-2-yl)-1H-imidazol-2-yl)benzonitrile], the pIC50 against PLK1 was 5.00 to 6.00; at PLK2, above 6.00; at PLK3 it was 4.30 to 5.00.

In the case of `CC[C@@H]1C(=O)N(C)c2cnc(-c3cn[nH]c3-c3cscn3)nc2N1C1CCCC1` [Example 307, (R)-8-cyclopentyl-7-ethyl-5-methyl-2-(5-(thiazol-4-yl)-1H-pyrazol-4-yl)-7,8-dihydropteridin-6(5H)-one], the pIC50 against PLK1, at PLK2 and on PLK3 was above 6.00 throughout.

On to `CC[C@@H]1C(=O)N(C)c2cnc(-c3cccc(NS(C)(=O)=O)c3)nc2N1C1CCCC1` [Example 53, (R)—N-(3-(8-cyclopentyl-7-ethyl-5-methyl-6-oxo-5,6,7,8-tetrahydropteridin-2-yl)phenyl)methanesulfonamide], for which the pIC50 at PLK1 was 5.00 to 6.00; on PLK2, above 6.00; on PLK3, 5.00 to 6.00.

Take `CC[C@@H]1C(=O)N(C)c2cnc(-c3ccncc3CNC(C)=O)nc2N1C1CCCC1` [Example 122, (R)—N-((4-(8-cyclopentyl-7-ethyl-5-methyl-6-oxo-5,6,7,8-tetrahydropteridin-2-yl)pyridin-3-yl)methyl)acetamide]: the pIC50 at PLK1 is 4.30 to 5.00; on PLK2 it was 5.00 to 6.00; on PLK3, 4.30 to 5.00.

For the molecule `CN1C(=O)[C@H](CC(F)(F)F)N(CCC(F)(F)F)c2nc(-n3ccnc3-c3ccc(F)cc3F)ncc21` [Example 294, (S)-2-(2-(2,4-difluorophenyl)-1H-imidazol-1-yl)-5-methyl-7-(2,2,2-trifluoroethyl)-8-(3,3,3-trifluoropropyl)-7,8-dihydropteridin-6(5H)-one], the pIC50 against PLK1 was below 4.30; at PLK2, 4.30 to 5.00; on PLK3, below 4.30.

On to `CC[C@@H]1C(=O)N(C)c2cnc(-n3ccnc3-c3cccc(F)c3F)nc2N1CCC(F)(F)F` [Example 254, (R)-2-(2-(2,3-difluorophenyl)-1H-imidazol-1-yl)-7-ethyl-5-methyl-8-(3,3,3-trifluoropropyl)-7,8-dihydropteridin-6(5H)-one], for which the pIC50 at PLK1 is above 6.00; on PLK2, above 6.00; at PLK3, 5.00 to 6.00.

Take `CC[C@@H]1C(=O)N(C)c2cnc(N3CCNC(=O)C3)nc2N1C1CCCC1` [Example 214, (R)-8-cyclopentyl-7-ethyl-5-methyl-2-(3-oxopiperazin-1-yl)-7,8-dihydropteridin-6(5H)-one]: the negative logarithm of the IC50 (pIC50) at PLK1 was 5.00 to 6.00; at PLK2, 4.30 to 5.00; at PLK3, below 4.30.

For `CC[C@@H]1C(=O)N(C)c2cnc(-n3ccnc3Cc3ccccc3)nc2N1C1CCCC1` [Example 75, (R)-2-(2-benzyl-1H-imidazol-1-yl)-8-cyclopentyl-7-ethyl-5-methyl-7,8-dihydropteridin-6(5H)-one], the pIC50 is 5.00 to 6.00 against PLK1, above 6.00 on PLK2 and 4.30 to 5.00 on PLK3.

For the molecule `CC[C@@H]1C(=O)N(C)c2cnc(-c3ccncc3N)nc2N1C1CCCC1` [Example 91, (R)-2-(3-aminopyridin-4-yl)-8-cyclopentyl-7-ethyl-5-methyl-7,8-dihydropteridin-6(5H)-one], the pIC50 was above 6.00 against PLK1, above 6.00 at PLK2 and 5.00 to 6.00 on PLK3.

In the case of `CC[C@@H]1C(=O)N(C)c2cnc(-c3cccc(OCc4ccccc4)c3)nc2N1C1CCCC1` [Example 72, (R)-2-(3-(benzyloxy)phenyl)-8-cyclopentyl-7-ethyl-5-methyl-7,8-dihydropteridin-6(5H)-one], the pIC50 at PLK1 is below 4.30; at PLK2 it was 4.30 to 5.00; on PLK3 it was below 4.30.

Regarding `CC[C@@H]1C(=O)N(C)c2cnc(-n3ccnc3-c3nccs3)nc2N1C1CCCC1` [Example 74, (R)-8-cyclopentyl-7-ethyl-5-methyl-2-(2-(thiazol-2-yl)-1H-imidazol-1-yl)-7,8-dihydropteridin-6(5H)-one], the negative logarithm of the IC50 (pIC50) against PLK1, on PLK2 and on PLK3 was above 6.00 each time.

Take `CC[C@@H]1C(=O)N(C)c2cnc(N3CCN(C)CC3)nc2N1C1CCCC1` [Example 210, (R)-8-cyclopentyl-7-ethyl-5-methyl-2-(4-methylpiperazin-1-yl)-7,8-dihydropteridin-6(5H)-one]: the pIC50 against PLK1, on PLK2 and on PLK3 was below 4.30 in each case.

Consider `CC[C@@H]1C(=O)N(C)c2cnc(-n3ccnc3-c3ccc(F)cc3F)nc2N1C1CCOC1` (stereo partly drawn) [Example 268, (7R)-2-(2-(2,4-difluorophenyl)-1H-imidazol-1-yl)-7-ethyl-5-methyl-8-(tetrahydrofuran-3-yl)-7,8-dihydropteridin-6(5H)-one], for which the values for the pIC50 at PLK1, at PLK2 and at PLK3 were 5.00 to 6.00, above 6.00 and 5.00 to 6.00, respectively.
